Test results taken from ChEMBL document CHEMBL1132877, “Novel alpha-glucosidase inhibitors with a tetrachlorophthalimide skeleton” (Bioorg Med Chem Lett, 2000).

Assays:
[1] = Inhibition of Alpha-glucosidase activity.
[2] = Compound was evaluated for binding affinity towards Alpha-glucosidase analyzed by the surface plasma resonance (SPR) method
[3] = Compound was tested for the inhibition of Alpha-glucosidase
[4] = Inhibitory effect on Alpha-glucosidase activity

Compound | IC50 [1] | Ka [2] | IC50 [3] | IC50 [4]
O=C1c2ccccc2C(=O)N1c1ccccc1 [N-PHENYL-PHTHALIMIDE] | > 500 µM | – | – | –
O=C1c2ccccc2C(=O)N1CCc1ccccc1 | > 500 µM | – | – | –
Nc1cccc2c1C(=O)N(c1ccccc1)C2=O | > 500 µM | – | – | –
Nc1ccc2c(c1)C(=O)N(c1ccccc1)C2=O | > 500 µM | – | – | –
O=C1c2ccccc2C(=O)N1CCCc1ccccc1 | > 500 µM | – | – | –
O=C1c2ccc(O)cc2C(=O)N1c1ccccc1 | > 500 µM | – | – | –
O=C1c2cccc(O)c2C(=O)N1c1ccccc1 | > 500 µM | – | – | –
O=C1c2ccccc2C(=O)N1Cc1ccccc1 | > 500 µM | – | – | –
O=C1c2c(Cl)c(Cl)c(Cl)c(Cl)c2C(=O)N1CCCCc1ccccc1 | – | 22000 M⁻¹ | 2 µM | –
OC[C@H]1NC[C@H](O)[C@@H](O)[C@@H]1O [DUVOGLUSTAT] | 47.6 µM | 210000 M⁻¹ | – | –

Next, values leading:

IC50 [1] | Ka [2] | IC50 [3] | IC50 [4] | Compound
10.9 µM | 15000 M⁻¹ | – | – | O=C1c2c(Cl)c(Cl)c(Cl)c(Cl)c2C(=O)N1Cc1ccccc1
4.5 µM | 33000 M⁻¹ | – | – | O=C1c2c(Cl)c(Cl)c(Cl)c(Cl)c2C(=O)N1CCCc1ccccc1
23.7 µM | – | – | – | O=C1c2ccc([N+](=O)[O-])cc2C(=O)N1c1ccccc1
25.9 µM | – | – | – | O=C1c2cccc([N+](=O)[O-])c2C(=O)N1c1ccccc1
7 µM | – | – | – | O=C1c2c(Cl)c(Cl)c(Cl)c(Cl)c2C(=O)N1CCCCCCc1ccccc1
6 µM | 25000 M⁻¹ | – | – | O=C1c2c(Cl)c(Cl)c(Cl)c(Cl)c2C(=O)N1CCc1ccccc1
3.5 µM | 15000 M⁻¹ | – | – | O=C1c2c(Cl)c(Cl)c(Cl)c(Cl)c2C(=O)N1CCCCCc1ccccc1
2.6 µM | 140000 M⁻¹ | – | 17.9 µM | O=C1c2c(Cl)c(Cl)c(Cl)c(Cl)c2C(=O)N1c1ccccc1
